Test results as given in patent EP4759814A1, “TRICYCLIC COMPOUND AND USE THEREOF AS MAT2A INHIBITOR” (SK Biopharmaceuticals Co., Ltd., priority 2023, dated 2025).
pIC50: −log10 of the molar value.

Columns and labels:
[1] = test system: HCT116 (MTAP WT) cell line; assay: Cell proliferation inhibition in wild-type control cells, WST-1 assay; assay type: cell-based; conditions: Homo sapiens, HCT-116, 120 hours of drug treatment, maximum concentration 10 µM, read-out: HCT116 WT (IC50, cell proliferation inhibited by 50%)
Description: (§1) The HCT116 (MTAP del) cell line, which is a colorectal cancer cell line with deletion of MTAP gene, was treated with a compound according to an embodiment of the present application as a MAT2A inhibitor, and after culturing for 120 hours, the change in the number of cells was measured with a WST-1 assay reagent. The WST-1 assay is an assay that measures the number of cells by measuring the generation of a chromogenic substance called formazan from tetrazolium salts by intracellular mitochondrial dehydrogenase. In addition, as a control group, a wild-type colorectal cancer HCT116 (MTAP WT) cell line containing the MTAP gene was used to perform the experiment in the same manner as the experimental group.
(§2) Cell lines and reagents: HCT116 (MTAP WT (catalog number HD PAR-034), MTAP del (catalog number HD R02-033)) cell lines were purchased from Horizon Discovery (USA), and RPMI1640 medium (catalog number 22400-093), FBS (Fetal Bovine serum, catalog number 16000044), and Penicillin/Streptomycin (catalog number 15140-122) were purchased from GIBCO (USA). WST-1 (catalog number EZ-BULK150) was purchased from Dogen (Korea).
(§3) Experimental procedure: HCT116 (MTAP WT, MTAP del) cell lines were dispensed into a 96-well plate at a concentration of 1,000 cells/well in RPMI1640 culture medium containing 10% FBS and 1% Penicillin/Streptomycin, and allowed to attach for 24 hours. When the cells were attached to the plate, the drug was diluted 4-fold from a maximum concentration of 10 µM and treated on the cells. After 120 hours of drug treatment, 20 µL of WST-1 solution was treated for 2 hours, and absorbance at 450 nm was measured using SpectraMax M4 (Molecular Devices). Data analysis was calculated by taking the DMSO control group value as 100%. For the IC50 value, the concentration at which cell proliferation is inhibited by 50% was calculated through interpolation using a 4-parameter fit of the dose-response curve using the GraphPad Prism 8.4.3 program. The cancer cell proliferation inhibitory ability and selectivity in MTAP-deficient cancer cells of the compounds according to an embodiment of the present application are described in Table 3 (+++: 1 to 100 nM, ++: more than 100 to 1,000 nM, +: more than 1 to 10 µM, -: more than 10 µM).

MAT2A = molecular target: T1, MAT2A (Homo sapiens, UniProt P31153); assay: MAT2A inhibitory activity, colorimetric phosphate detection (PiColorLock) enzyme assay; assay type: biochemical; conditions: Test Condition 1 or 2 (not stated which per compound); absorbance at 630 nm
T1 construct: purchased BPS Bioscience (USA) 71401
Summary of the method: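 Compound preincubated 30 min at room temperature with enzyme, then reacted 1 h with ATP and Met; phosphate read colorimetrically at 630 nm. Condition 1: top 50 µM, 12 ng/µL enzyme, 100 µM ATP, 80 µM Met. Condition 2: top 1 µM, 4 ng/µL enzyme, 300 µM ATP, 150 µM Met. Tris pH 8.0 buffer; IC50 by 4-parameter fit.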

[2] = test system: HCT116 (MTAP del) cell line; assay: Cell proliferation inhibition in MTAP-deficient cancer cells, WST-1 assay; assay type: cell-based; conditions: Homo sapiens, HCT-116, 120 hours of drug treatment, maximum concentration 10 µM, read-out: HCT116 MTAP^-/- (IC50, cell proliferation inhibited by 50%)
Description: as §1, §2, §3

T1 sequence (P31153 whole entry): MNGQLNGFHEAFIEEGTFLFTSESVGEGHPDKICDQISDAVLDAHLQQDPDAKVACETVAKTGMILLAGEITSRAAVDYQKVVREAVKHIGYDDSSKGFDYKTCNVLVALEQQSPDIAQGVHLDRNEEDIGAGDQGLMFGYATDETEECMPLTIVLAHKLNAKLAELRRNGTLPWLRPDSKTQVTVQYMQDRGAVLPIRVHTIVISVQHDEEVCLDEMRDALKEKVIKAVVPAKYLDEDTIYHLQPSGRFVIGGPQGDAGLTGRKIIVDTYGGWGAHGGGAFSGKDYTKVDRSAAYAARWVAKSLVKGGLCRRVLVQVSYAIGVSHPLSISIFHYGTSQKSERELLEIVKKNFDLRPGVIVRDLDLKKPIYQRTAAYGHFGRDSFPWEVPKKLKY

Compound	pIC50 [1]	pIC50 (MAT2A)	pIC50 [2]
Cc1ccccc1-n1c(=O)c2nccn2c2ccc(Cl)nc21 [Example 35, 7-chloro-5-(o-tolyl)imidazo[1,2-a]pyrido[2,3-e]pyrazin-4(5H)-one]	< 5.00	6.00 to 7.00	6.00 to 7.00
Cc1ccc2c(n1)n(-c1ccccc1C)c(=O)c1nccn12 [Example 36, 7-methyl-5-(o-tolyl)imidazo[1,2-a]pyrido[2,3-e]pyrazin-4(5H)-one]	< 5.00	6.00 to 7.00	6.00 to 7.00
COc1ccccc1-n1c(=O)c2nccn2c2ccc(Cl)cc21 [Example 37, 7-chloro-5-(2-methoxyphenyl)imidazo[1,2-a]quinoxalin-4(5H)-one]	< 5.00	6.00 to 7.00	6.00 to 7.00
O=c1c2nccn2c2ccc(Cl)cc2n1-c1ccccc1Br [Example 38, 5-(2-bromophenyl)-7-chloroimidazo[1,2-a]quinoxalin-4(5H)-one]	< 5.00	6.00 to 7.00	7.00 to 9.00
Cc1cccc(-n2c(=O)c3nccn3c3ccc(Cl)cc32)c1 [Example 39, 7-chloro-5-(m-tolyl)imidazo[1,2-a]quinoxalin-4(5H)-one]	< 5.00	6.00 to 7.00	6.00 to 7.00
O=c1c2nccn2c2ccc(Cl)cc2n1-c1cccc(F)c1 [Example 40, 7-chloro-5-(3-fluorophenyl)imidazo[1,2-a]quinoxalin-4(5H)-one]	< 5.00	6.00 to 7.00	6.00 to 7.00
Cc1cn2c(n1)c(=O)n(-c1cccnc1C)c1cc(Cl)ccc12 [Example 45, 7-chloro-2-methyl-5-(2-methylpyridin-3-yl)imidazo[1,2-a]quinoxalin-4(5H)-one]	6.00 to 7.00	7.00 to 9.00	7.00 to 9.00
Cc1ccccc1-n1c(=O)c2nccn2c2ccc(C(F)F)nc21 [Example 46, 7-(difluoromethyl)-5-(o-tolyl)imidazo[1,2-a]pyrido[2,3-e]pyrazin-4(5H)-one]	< 5.00	6.00 to 7.00	6.00 to 7.00
Cc1ccccc1-n1c(=O)c2nccn2c2ccc(C(F)(F)F)nc21 [Example 49, 5-(o-tolyl)-7-(trifluoromethyl)imidazo[1,2-a]pyrido[2,3-e]pyrazin-4(5H)-one]	< 5.00	6.00 to 7.00	6.00 to 7.00
Cc1cccc(F)c1-n1c(=O)c2nccn2c2ccc(Cl)cc21 [Example 52, 7-chloro-5-(2-fluoro-6-methylphenyl)imidazo[1,2-a]quinoxalin-4(5H)-one]	< 5.00	6.00 to 7.00	5.00 to 6.00
O=c1c2nccn2c2ccc(Cl)cc2n1-c1cccnc1Cl [Example 54, 7-chloro-5-(2-chloropyridin-3-yl)imidazo[1,2-a]quinoxalin-4(5H)-one]	6.00 to 7.00	7.00 to 9.00	7.00 to 9.00
Cc1cn2c(n1)c(=O)n(-c1cccnc1C)c1cc(C(F)(F)F)ccc12 [Example 55, 2-methyl-5-(2-methylpyridin-3-yl)-7-(trifluoromethyl)imidazo[1,2-a]quinoxalin-4(5H)-one]	5.00 to 6.00	7.00 to 9.00	7.00 to 9.00
Cc1ncccc1-n1c(=O)c2nccn2c2ccc(C(F)(F)F)cc21 [Example 56, 5-(2-methylpyridin-3-yl)-7-(trifluoromethyl)imidazo[1,2-a]quinoxalin-4(5H)-one]	5.00 to 6.00	6.00 to 7.00	7.00 to 9.00
Cc1ncccc1-n1c(=O)c2ncc(Br)n2c2ccc(C(F)(F)F)cc21 [Example 57, 1-bromo-5-(2-methylpyridin-3-yl)-7-(trifluoromethyl)imidazo[1,2-a]quinoxalin-4(5H)-one]	6.00 to 7.00	6.00 to 7.00	7.00 to 9.00
Cc1ncccc1-n1c(=O)c2ncc(C)n2c2ccc(C(F)(F)F)cc21 [Example 58, 1-methyl-5-(2-methylpyridin-3-yl)-7-(trifluoromethyl)imidazo[1,2-a]quinoxalin-4(5H)-one]	6.00 to 7.00	6.00 to 7.00	7.00 to 9.00
CC(=O)c1nc2c(=O)n(-c3cccnc3C)c3cc(C(F)(F)F)ccc3n2c1O [Example 60, 2-acetyl-1-hydroxy-5-(2-methylpyridin-3-yl)-7-(trifluoromethyl)imidazo[1,2-a]quinoxalin-4(5H)-one]	< 5.00	6.00 to 7.00	< 5.00
O=c1c2nccn2c2ccc(C(F)(F)F)cc2n1-c1cccc2c1CCO2 [Example 65, 5-(2,3-dihydrobenzofuran-4-yl)-7-(trifluoromethyl)imidazo[1,2-a]quinoxalin-4(5H)-one]	5.00 to 6.00	7.00 to 9.00	7.00 to 9.00
Cc1ccccc1-n1c(=O)c2nccn2c2c(F)cc(Cl)cc21 [Example 71, 7-chloro-9-fluoro-5-(o-tolyl)imidazo[1,2-a]quinoxalin-4(5H)-one]	< 5.00	5.00 to 6.00	< 5.00
Cc1cc2c(cc1Cl)n(-c1ccccc1C)c(=O)c1nccn12 [Example 73, 7-chloro-8-methyl-5-(o-tolyl)imidazo[1,2-a]quinoxalin-4(5H)-one]	< 5.00	6.00 to 7.00	6.00 to 7.00
COc1cc2c(cc1Br)n(-c1ccccc1C)c(=O)c1nccn12 [Example 74, 7-bromo-8-methoxy-5-(o-tolyl)imidazo[1,2-a]quinoxalin-4(5H)-one]	< 5.00	6.00 to 7.00	6.00 to 7.00
COc1cc2c(cc1Br)n(-c1cccnc1C)c(=O)c1nccn12 [Example 75, 7-bromo-8-methoxy-5-(2-methylpyridin-3-yl)imidazo[1,2-a]quinoxalin-4(5H)-one]	< 5.00	6.00 to 7.00	6.00 to 7.00
Cc1ncccc1-n1c(=O)c2nccn2c2cc(F)c(Br)cc21 [Example 77, 7-bromo-8-fluoro-5-(2-methylpyridin-3-yl)imidazo[1,2-a]quinoxalin-4(5H)-one]	5.00 to 6.00	7.00 to 9.00	7.00 to 9.00
Cc1cc2c(cc1Br)n(-c1cccnc1C)c(=O)c1nccn12 [Example 78, 7-bromo-8-methyl-5-(2-methylpyridin-3-yl)imidazo[1,2-a]quinoxalin-4(5H)-one]	< 5.00	7.00 to 9.00	7.00 to 9.00
Cc1ncccc1-n1c(=O)c2nccn2c2cc(Cl)c(Br)cc21 [Example 79, 7-bromo-8-chloro-5-(2-methylpyridin-3-yl)imidazo[1,2-a]quinoxalin-4(5H)-one]	5.00 to 6.00	7.00 to 9.00	7.00 to 9.00
Cc1cc2c(cc1Br)n(-c1cccnc1C)c(=O)c1ncc(C)n12 [Example 84, 7-bromo-1,8-dimethyl-5-(2-methylpyridin-3-yl)imidazo[1,2-a]quinoxalin-4(5H)-one]	< 5.00	6.00 to 7.00	7.00 to 9.00
Cc1ncccc1-n1c(=O)c2ncc(C)n2c2c(Br)c(C)c(Br)cc21 [Example 85, 7,9-dibromo-1,8-dimethyl-5-(2-methylpyridin-3-yl)imidazo[1,2-a]quinoxalin-4(5H)-one]	< 5.00	6.00 to 7.00	7.00 to 9.00
Cc1ncccc1-n1c(=O)c2ncc(C)n2c2cc(Cl)c(Br)cc21 [Example 86, 7-bromo-8-chloro-1-methyl-5-(2-methylpyridin-3-yl)imidazo[1,2-a]quinoxalin-4(5H)-one]	< 5.00	6.00 to 7.00	6.00 to 7.00
